Reference: patent publication US10828316B2, “Method of treating bacterial infections” (priority 2016, dated 2020)

Assays:
S. typhimurium EN0466 = assay: MIC; type: cell-based, Salmonella typhimurium; details: in FdUrd+trimethoprim+uridine combination
K. oxytoca EN0392 = assay: MIC; type: cell-based, Klebsiella oxytoca; details: in FdUrd+trimethoprim+uridine combination
E. coli EN001 = assay: MIC; type: cell-based, Escherichia coli
E. coli EN002 = assay: MIC; type: cell-based, Escherichia coli; details: Combination 1 (AZT+trimethoprim+uridine)
K. pneumoniae EN011 = assay: MIC; type: cell-based, Klebsiella pneumoniae; details: Klebsiella pneumoniae, EN011, K. pneumoniae EN011; also: test concentration or dose not given here
E. coli EN013 = assay: MIC; type: cell-based, Escherichia coli; details: Escherichia coli, EN013, E. coli EN013
P. aeruginosa EN015 = assay: MIC; type: cell-based, Pseudomonas aeruginosa; details: Pseudomonas aeruginosa, EN015, P. aeruginosa EN015; also: test concentration or dose not given here
E. coli EN0001 = assay: MIC; type: cell-based; details: in AZT+trimethoprim+uridine combination
E. coli EN0135 = assay: MIC; type: cell-based; details: in AZT+trimethoprim+uridine combination
E. coli EN0136 = assay: MIC; type: cell-based; details: in AZT+trimethoprim+uridine combination
E. coli EN0138 = assay: MIC; type: cell-based; details: in AZT+trimethoprim+uridine combination
K. pneumoniae EN0142 = assay: MIC; type: cell-based; details: in AZT+trimethoprim+uridine combination
K. pneumoniae EN0143 = assay: MIC; type: cell-based
K. pneumoniae EN0401 = assay: MIC; type: cell-based
K. pneumoniae EN0436 = assay: MIC; type: cell-based; details: in AZT+trimethoprim+uridine combination
K. pneumoniae EN0437 = assay: MIC; type: cell-based
P. aeruginosa EN0004 = assay: MIC; type: cell-based
A. baumannii EN0007 = assay: MIC; type: cell-based, A. baumanii
S. flexneri APV00906 = assay: MIC; type: cell-based; details: S. flexneri APV00906; in FdUrd+trimethoprim+uridine combination
S. flexneri APV00907 = assay: MIC; type: cell-based; details: S. flexneri APV00907
S. sonnei APV00908 = assay: MIC; type: cell-based; details: S. sonnei APV00908
[1] = system: Helicobacter pylori APV00918; assay: MIC; type: cell-based; details: in FdUrd+trimethoprim+uridine combination
From the text: (§1) Inhibition of Heliobacter is important in view of increasing resistance and its association to gastric cancer.

[2] = system: Helicobacter pylori ATTC43504; assay: MIC; type: cell-based; details: in AZT+trimethoprim+uridine combination
From the text: as §1

[3] = in vivo; cited from earlier work
[4] = in FdUrd+trimethoprim+uridine combination
[5] = in didanosine+trimethoprim+uridine combination
[6] = Combination 1 (AZT+trimethoprim+uridine)
[7] = in AZT+trimethoprim+uridine combination
[8] = Combination 2 (same mixed with thymidine)

Work on O=c1ccn([C@@H]2O[C@H](CO)[C@@H](O)[C@H]2O)c(=O)[nH]1 [Uridine, uridine] yielded an MIC (S. typhimurium EN0466) of 13 µg/mL, an MIC (K. oxytoca EN0392) of 13 µg/mL and an MIC (E. coli EN001; [4]) of 13 µg/mL. For the same compound, the MIC (E. coli EN001; [5]) was 13 µg/mL, the MIC (E. coli EN002) was 1.6 µg/mL and the MIC (K. pneumoniae EN011; [6]) was 3.2 µg/mL. For the same compound, the MIC (K. pneumoniae EN011; [7]) was 30 µg/mL, the MIC (K. pneumoniae EN011; [4]) was 6 µg/mL and the MIC (K. pneumoniae EN011; [5]) was 13 µg/mL. It also gave an MIC (E. coli EN013; [6]) of less than 0.8 µg/mL, an MIC (E. coli EN013; [8]) of less than 0.8 µg/mL and an MIC (E. coli EN013; [7]) of less than 2 µg/mL. It also gave an MIC (E. coli EN013; [4]) of 1.6 µg/mL, an MIC (E. coli EN013; [5]) of 1.6 µg/mL and an MIC (P. aeruginosa EN015; [6]) of 200 µg/mL. For the same compound, the MIC (P. aeruginosa EN015; [8]) was 200 µg/mL, the MIC (P. aeruginosa EN015; [7]) was 500 µg/mL and the MIC (E. coli EN0001) was 13 µg/mL. The MIC (E. coli EN0135) was 13 µg/mL, the MIC (E. coli EN0136) was 13 µg/mL and the MIC (E. coli EN0138) was 1.6 µg/mL. It also gave an MIC (K. pneumoniae EN0142) of 13 µg/mL, an MIC (K. pneumoniae EN0143; [4]) greater than 400 µg/mL and an MIC (K. pneumoniae EN0143; [5]) greater than 400 µg/mL. For the same compound, the MIC (K. pneumoniae EN0401; [4]) was greater than 400 µg/mL, the MIC (K. pneumoniae EN0401; [5]) was greater than 400 µg/mL and the MIC (K. pneumoniae EN0436) was 13 µg/mL. The MIC (K. pneumoniae EN0437; [4]) was greater than 400 µg/mL, the MIC (K. pneumoniae EN0437; [5]) was greater than 400 µg/mL and the MIC (P. aeruginosa EN0004; [7]) was greater than 400 µg/mL. The MIC (P. aeruginosa EN0004; [4]) was greater than 400 µg/mL, the MIC (P. aeruginosa EN0004; [5]) was greater than 400 µg/mL and the MIC (A. baumannii EN0007; [7]) was greater than 400 µg/mL. The MIC (A. baumannii EN0007; [4]) was greater than 400 µg/mL, the MIC (A. baumannii EN0007; [5]) was greater than 400 µg/mL and the MIC (S. flexneri APV00906) was greater than 400 µg/mL. The MIC (S. flexneri APV00907; [7]) was 200 µg/mL, the MIC (S. flexneri APV00907; [4]) was greater than 400 µg/mL and the MIC (S. sonnei APV00908; [7]) was 3 µg/mL. The MIC (S. sonnei APV00908; [4]) was greater than 400 µg/mL, the MIC [1] was 6 µg/mL and the MIC [2] was 13 µg/mL. For the same compound, the oral bioavailability [3] was 7-8%.
